Test results reported in patent US20250292865A1, “DETERMINING BIOLOGICAL PARAMETERS OF A CELL” (THE UNIVERSITY OF BATH, priority 2022, published 2025).

Tests used:
HCN1 = target: T1, HCN1 (Homo sapiens, UniProt O60741); conditions: 50 μM; HCN1 selectively expressed in HEK293 cells; cited from earlier work
T1 sequence (O60741 1-890): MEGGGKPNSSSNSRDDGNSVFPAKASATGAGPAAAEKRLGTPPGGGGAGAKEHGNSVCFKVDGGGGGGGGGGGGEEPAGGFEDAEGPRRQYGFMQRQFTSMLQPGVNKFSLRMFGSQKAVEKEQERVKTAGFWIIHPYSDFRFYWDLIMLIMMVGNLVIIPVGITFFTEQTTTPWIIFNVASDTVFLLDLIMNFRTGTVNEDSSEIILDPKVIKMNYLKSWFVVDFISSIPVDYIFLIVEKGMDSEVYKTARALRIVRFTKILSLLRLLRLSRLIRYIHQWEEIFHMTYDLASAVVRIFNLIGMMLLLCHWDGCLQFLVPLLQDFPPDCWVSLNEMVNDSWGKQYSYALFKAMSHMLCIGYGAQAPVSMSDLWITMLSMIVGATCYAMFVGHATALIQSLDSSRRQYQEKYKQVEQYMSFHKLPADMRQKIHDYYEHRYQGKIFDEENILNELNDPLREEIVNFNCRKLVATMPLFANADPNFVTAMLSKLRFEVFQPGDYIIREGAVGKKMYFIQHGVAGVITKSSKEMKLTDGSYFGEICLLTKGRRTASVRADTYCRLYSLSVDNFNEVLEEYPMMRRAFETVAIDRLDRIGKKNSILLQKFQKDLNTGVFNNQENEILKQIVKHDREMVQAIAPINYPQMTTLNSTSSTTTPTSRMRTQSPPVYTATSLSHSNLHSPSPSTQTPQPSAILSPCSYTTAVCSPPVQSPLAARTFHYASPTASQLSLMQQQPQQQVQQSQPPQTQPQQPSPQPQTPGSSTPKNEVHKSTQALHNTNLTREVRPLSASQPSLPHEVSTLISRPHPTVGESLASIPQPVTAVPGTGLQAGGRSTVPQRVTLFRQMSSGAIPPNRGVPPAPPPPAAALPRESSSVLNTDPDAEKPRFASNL

HCN2 = target: T2, HCN2 (Homo sapiens, UniProt Q9UL51); conditions: 50 μM; HCN2 selectively expressed in xenopus oocytes; cited from earlier work
T2 sequence (Q9UL51 1-889): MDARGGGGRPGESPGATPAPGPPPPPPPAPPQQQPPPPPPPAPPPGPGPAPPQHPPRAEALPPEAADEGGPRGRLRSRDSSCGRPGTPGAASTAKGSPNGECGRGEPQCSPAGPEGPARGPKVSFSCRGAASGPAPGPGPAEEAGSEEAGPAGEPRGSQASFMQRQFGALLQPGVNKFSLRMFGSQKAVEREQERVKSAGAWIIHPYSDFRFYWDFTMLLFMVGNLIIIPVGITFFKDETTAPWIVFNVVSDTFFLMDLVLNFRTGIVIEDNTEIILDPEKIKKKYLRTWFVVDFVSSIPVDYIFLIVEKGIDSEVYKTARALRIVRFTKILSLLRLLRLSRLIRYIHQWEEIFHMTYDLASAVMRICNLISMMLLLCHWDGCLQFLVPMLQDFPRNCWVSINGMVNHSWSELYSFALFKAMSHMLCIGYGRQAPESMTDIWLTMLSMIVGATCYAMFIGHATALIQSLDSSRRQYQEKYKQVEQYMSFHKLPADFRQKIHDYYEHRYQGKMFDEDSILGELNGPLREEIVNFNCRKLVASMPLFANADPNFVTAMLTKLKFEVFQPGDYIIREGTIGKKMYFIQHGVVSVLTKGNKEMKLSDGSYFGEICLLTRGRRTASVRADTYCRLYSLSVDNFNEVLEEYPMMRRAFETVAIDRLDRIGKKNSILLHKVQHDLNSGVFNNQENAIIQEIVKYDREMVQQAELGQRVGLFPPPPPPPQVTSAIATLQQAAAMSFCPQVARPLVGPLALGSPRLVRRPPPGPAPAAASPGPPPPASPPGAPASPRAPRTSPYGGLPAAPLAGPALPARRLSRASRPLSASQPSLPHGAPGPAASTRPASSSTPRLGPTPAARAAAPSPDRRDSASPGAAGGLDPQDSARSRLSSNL

BK ion channel = target: T3, BK ion channel (Homo sapiens, UniProt Q12791); experiment: Data assimilation of CA1 neuron current clamp recordings: predicted charge through BK channel before and after drug; format: cell-based, rodent
T3 construct: endogenous in cells; host or cells: hippocampal CA1 neuron

BK [α + β4] = BK [α + β4] (Homo sapiens, UniProt Q12791); conditions: 100 nM; BK [α + β4] selectively expressed in HEK293 cells; cited from earlier work
A-type K+ ion channel = experiment: Data assimilation of CA1 neuron current clamp recordings: predicted charge through A-type K+ channel before and after drug; format: cell-based, rodent
BK [α + β1] = BK [α + β1] (Homo sapiens, UniProt Q12791); conditions: 100 nM; BK [α + β1] selectively expressed in HEK293 cells; cited from earlier work
BK [α + β3] = BK [α + β3] (Homo sapiens, UniProt Q12791); conditions: 100 nM; BK [α + β3] selectively expressed in HEK293 cells; cited from earlier work
BK [α subunit only] = BK [α subunit only] (Homo sapiens, UniProt Q12791); conditions: 100 nM; BK [α subunit only] selectively expressed in HEK293 cells; cited from earlier work
K ion channel = experiment: Data assimilation of CA1 neuron current clamp recordings: predicted charge through K channel before and after drug; format: cell-based, rodent; conditions: 100 nM IbTX, 2000 ms prediction window, FIG. 12A
SK ion channel = experiment: Data assimilation of CA1 neuron current clamp recordings: predicted charge through SK channel before and after drug; format: cell-based, rodent; conditions: 100 nM IbTX, 2000 ms prediction window, FIG. 12A
NaT ion channel = experiment: Data assimilation of CA1 neuron current clamp recordings: predicted charge through NaT channel before and after drug; format: cell-based, rodent; conditions: 100 nM IbTX, 2000 ms prediction window, FIG. 12A
A-type [Kv4.2] = target: T4, A-type [Kv4.2] (Homo sapiens, UniProt Q9NZV8); conditions: 300 μM; A-type [Kv4.2] selectively expressed in xenopus oocytes; cited from earlier work
T4 sequence (Q9NZV8 1-630): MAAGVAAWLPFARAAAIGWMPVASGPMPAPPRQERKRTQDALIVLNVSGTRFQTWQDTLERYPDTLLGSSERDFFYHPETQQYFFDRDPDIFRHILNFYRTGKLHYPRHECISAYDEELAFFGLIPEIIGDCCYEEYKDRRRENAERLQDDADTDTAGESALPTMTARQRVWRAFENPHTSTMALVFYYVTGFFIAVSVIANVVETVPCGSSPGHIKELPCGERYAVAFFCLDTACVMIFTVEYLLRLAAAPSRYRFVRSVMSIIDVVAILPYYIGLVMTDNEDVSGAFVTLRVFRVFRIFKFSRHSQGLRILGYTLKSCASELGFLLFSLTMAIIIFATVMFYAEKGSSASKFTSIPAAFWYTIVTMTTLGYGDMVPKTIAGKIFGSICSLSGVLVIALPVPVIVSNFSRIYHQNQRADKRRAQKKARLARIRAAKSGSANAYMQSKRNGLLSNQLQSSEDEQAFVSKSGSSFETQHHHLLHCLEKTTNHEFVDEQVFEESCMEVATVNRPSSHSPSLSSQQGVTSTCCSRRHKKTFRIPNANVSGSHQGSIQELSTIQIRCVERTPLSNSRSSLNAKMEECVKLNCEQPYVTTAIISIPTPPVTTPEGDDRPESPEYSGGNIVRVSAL

A-type [Kv1.4] = A-type [Kv1.4] (Homo sapiens, UniProt P22459); conditions: 300 μM; A-type [Kv1.4] selectively expressed in xenopus oocytes; cited from earlier work
A-type [Kv1.4], sequence (P22459 whole entry): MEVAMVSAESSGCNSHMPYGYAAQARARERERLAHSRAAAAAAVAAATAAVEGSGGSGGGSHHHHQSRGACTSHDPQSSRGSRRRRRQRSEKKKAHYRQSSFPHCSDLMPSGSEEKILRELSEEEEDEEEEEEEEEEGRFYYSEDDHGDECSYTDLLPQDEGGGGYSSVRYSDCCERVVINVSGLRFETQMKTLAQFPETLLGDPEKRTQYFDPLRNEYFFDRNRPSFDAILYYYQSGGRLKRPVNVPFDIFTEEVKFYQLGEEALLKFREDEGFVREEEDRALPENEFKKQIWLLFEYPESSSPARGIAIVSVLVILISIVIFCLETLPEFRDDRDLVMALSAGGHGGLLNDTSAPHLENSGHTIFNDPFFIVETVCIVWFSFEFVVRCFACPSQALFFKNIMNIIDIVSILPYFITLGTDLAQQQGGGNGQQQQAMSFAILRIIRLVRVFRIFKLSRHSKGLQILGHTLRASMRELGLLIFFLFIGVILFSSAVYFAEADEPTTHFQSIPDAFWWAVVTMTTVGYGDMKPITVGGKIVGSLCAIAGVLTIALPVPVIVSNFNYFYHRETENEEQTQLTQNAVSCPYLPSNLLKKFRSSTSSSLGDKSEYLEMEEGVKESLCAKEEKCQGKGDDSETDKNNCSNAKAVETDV

T3 sequence (Q12791 whole entry): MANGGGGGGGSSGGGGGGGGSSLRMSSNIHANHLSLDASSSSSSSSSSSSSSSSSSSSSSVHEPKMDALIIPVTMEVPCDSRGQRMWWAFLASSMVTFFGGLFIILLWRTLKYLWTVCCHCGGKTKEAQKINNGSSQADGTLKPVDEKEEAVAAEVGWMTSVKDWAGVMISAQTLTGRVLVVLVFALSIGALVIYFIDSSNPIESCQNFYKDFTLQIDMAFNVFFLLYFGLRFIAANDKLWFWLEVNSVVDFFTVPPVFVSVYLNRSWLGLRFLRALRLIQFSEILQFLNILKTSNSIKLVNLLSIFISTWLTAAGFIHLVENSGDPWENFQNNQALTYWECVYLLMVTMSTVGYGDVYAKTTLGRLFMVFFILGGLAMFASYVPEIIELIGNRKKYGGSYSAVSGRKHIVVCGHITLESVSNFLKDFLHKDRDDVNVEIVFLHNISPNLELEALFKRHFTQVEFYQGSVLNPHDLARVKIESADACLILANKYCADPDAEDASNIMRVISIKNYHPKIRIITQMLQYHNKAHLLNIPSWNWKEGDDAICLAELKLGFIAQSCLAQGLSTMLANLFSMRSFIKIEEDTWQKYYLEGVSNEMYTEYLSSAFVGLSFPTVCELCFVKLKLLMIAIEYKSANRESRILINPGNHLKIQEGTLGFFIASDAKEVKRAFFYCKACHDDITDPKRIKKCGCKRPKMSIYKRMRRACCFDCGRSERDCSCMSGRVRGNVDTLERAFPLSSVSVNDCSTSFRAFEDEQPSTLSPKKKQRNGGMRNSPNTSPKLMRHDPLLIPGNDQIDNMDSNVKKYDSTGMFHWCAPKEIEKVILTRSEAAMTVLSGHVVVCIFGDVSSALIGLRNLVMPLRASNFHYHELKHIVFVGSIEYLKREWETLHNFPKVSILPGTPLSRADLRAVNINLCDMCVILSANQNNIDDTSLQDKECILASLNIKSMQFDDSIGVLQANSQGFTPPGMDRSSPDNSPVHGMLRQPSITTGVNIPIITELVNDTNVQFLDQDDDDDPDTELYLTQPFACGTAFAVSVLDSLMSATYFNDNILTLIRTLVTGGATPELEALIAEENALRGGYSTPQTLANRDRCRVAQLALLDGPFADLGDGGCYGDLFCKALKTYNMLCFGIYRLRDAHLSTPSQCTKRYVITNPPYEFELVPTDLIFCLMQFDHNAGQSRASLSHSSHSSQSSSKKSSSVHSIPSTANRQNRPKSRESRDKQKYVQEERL
BK [α + β3], sequence (Q12791 whole entry): as above
BK [α + β3], sequence (Q9NPA1 whole entry partner): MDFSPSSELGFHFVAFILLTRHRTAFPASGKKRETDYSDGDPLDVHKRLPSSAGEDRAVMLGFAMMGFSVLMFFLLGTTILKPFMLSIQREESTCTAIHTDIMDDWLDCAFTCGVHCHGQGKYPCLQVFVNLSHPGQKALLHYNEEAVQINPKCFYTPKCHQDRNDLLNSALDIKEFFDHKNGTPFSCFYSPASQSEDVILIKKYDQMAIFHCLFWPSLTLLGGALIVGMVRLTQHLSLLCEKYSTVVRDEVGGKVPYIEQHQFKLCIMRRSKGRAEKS
BK [α + β1], sequence (Q12791 whole entry): as the sequence (Q12791 whole entry) above
BK [α + β1], sequence (Q16558 whole entry partner): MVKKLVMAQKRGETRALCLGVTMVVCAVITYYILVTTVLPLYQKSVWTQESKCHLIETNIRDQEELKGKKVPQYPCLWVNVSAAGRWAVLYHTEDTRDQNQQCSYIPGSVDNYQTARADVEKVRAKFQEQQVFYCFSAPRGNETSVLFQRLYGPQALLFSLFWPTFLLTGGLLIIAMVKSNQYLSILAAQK
BK [α subunit only], sequence (Q12791 whole entry): as the sequence (Q12791 whole entry) above
BK [α + β4], sequence (Q12791 whole entry): as above
BK [α + β4], sequence (Q86W47 whole entry partner): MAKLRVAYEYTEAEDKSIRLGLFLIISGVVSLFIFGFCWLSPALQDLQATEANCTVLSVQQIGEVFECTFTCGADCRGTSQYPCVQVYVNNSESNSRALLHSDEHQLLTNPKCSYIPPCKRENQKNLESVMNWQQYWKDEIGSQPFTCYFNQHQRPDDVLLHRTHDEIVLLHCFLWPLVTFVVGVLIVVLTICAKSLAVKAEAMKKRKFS

## CCN(c1ccccc1)c1cc(=NC)n(C)c(C)n1.Cl [ZD 7288]
HCN1
  EXPECTED DEGREE OF BLOCK AT APPLIED CONCENTRATION: ~63%
HCN2
  EXPECTED DEGREE OF BLOCK AT APPLIED CONCENTRATION: ~80%

## Iberiotoxin (QFTDVDCSVSKECWSVCKDLFGVDRGKCMGKKCRCYQ; UniProt P24663 1-37, looked up)
BK ion channel; 100 nM IbTX, BK ion channel, 2000 ms prediction window, FIG. 12A, 12D
  Effect on total predicted charge (spike normalised), pre- vs post-drug: does have a noticeable effect
BK ion channel; 100 nM applied, BK current, CA1 neuron, mean
  MEAN PREDICTED INHIBITION (Results): 14.8%
BK ion channel; 100 nM applied, BK current, CA1 neuron, median
  MEDIAN PREDICTED INHIBITION (Results): 12.1%
BK [α + β4]
  EXPECTED DEGREE OF BLOCK AT APPLIED CONCENTRATION: Insensitive
A-type K+ ion channel; 100 nM IbTX, A-type K+ ion channel, 2000 ms prediction window, FIG. 12A
  Effect on total predicted charge (spike normalised), pre- vs post-drug: does not have a visible effect
BK [α + β1]
  EXPECTED DEGREE OF BLOCK AT APPLIED CONCENTRATION: 12%
BK [α + β3]
  EXPECTED DEGREE OF BLOCK AT APPLIED CONCENTRATION: 77%
BK [α subunit only]
  EXPECTED DEGREE OF BLOCK AT APPLIED CONCENTRATION: 86%
K ion channel
  Effect on total predicted charge (spike normalised), pre- vs post-drug: does not have a visible effect
SK ion channel
  Effect on total predicted charge (spike normalised), pre- vs post-drug: does not have a visible effect
NaT ion channel
  Effect on total predicted charge (spike normalised), pre- vs post-drug: does not have a visible effect

## Nc1ccncc1 [4-AP, 4-aminopyridine]
A-type K+ ion channel; 300 μM applied, A-type K+ current, CA1 neuron, mean
  MEAN PREDICTED INHIBITION (Results): 19.0%
A-type K+ ion channel; 300 μM applied, A-type K+ current, CA1 neuron, median
  MEDIAN PREDICTED INHIBITION (Results): 24.3%
A-type [Kv4.2]
  EXPECTED DEGREE OF BLOCK AT APPLIED CONCENTRATION: ~13%
A-type [Kv1.4]
  EXPECTED DEGREE OF BLOCK AT APPLIED CONCENTRATION: ~25%
